# Measurements published in patent publication US20090069319A1, “IMIDAZOPYRIDINE ANALOGS AND THEIR USE AS AGONISTS OF THE WNT-BETA-CATENIN CELLULAR MESSAGING SYSTEM” (Wyeth, priority 2007, published 2009).
# Experiments:
# [1] = system: canonical Wnt-β-catenin cellular messaging system (16xTCF-TK-FireFly-Luci reporter, Wnt3a and Dkk1 co-transfected U2OS cells); experiment: Functional Dkk1-LRP5-TCF-Luciferase Assay in U2OS Cells (table columns: A=MAX FOLD Induction/DMSO CONTROL; B=fold induction @ 2.0 uM; C=fold induction @ 20.0 uM); format: cell-based, Human; settings: maximum fold induction over DMSO control
# Method in brief: (§1)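 U2OS cells co-transfected with 16×TCF-TK-firefly luciferase, TK-Renilla control, Wnt3a and Dkk1, then frozen; thawed cells (~5,000/well, ~5% FBS, phenol red-free RPMI) incubated ~20 h at 37° C. with compound (0.25% DMSO). Firefly luminescence (Bright-Glo) normalized to DMSO mean as fold induction.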
# [2] = as above; format: cell-based, Human; settings: Homo sapiens, U2OS; for fold induction at 2 µM: 2.0 uM compound; for fold induction at 20 µM: 20.0 uM compound
# Method in brief: as §1
Compound,A = MAX FOLD Induction/DMSO CONTROL [1],fold induction at 2 µM [2],fold induction at 20 µM [2]
"Cn1ccnc1-c1nc2cc(-c3ccc4ccccc4c3)cnc2n1C1CCNCC1 [2-(1-methyl-1H-imidazol-2-yl)-6-(2-naphthyl)-3-piperidin-4-yl-3H-imidazo[4,5-b]pyridine]",2.720,,
"Cn1cccc1-c1nc2cc(-c3ccc4ccccc4c3)cnc2n1C1CCNCC1 [2-(1-methyl-1H-pyrrol-2-yl)-6-(2-naphthyl)-3-piperidin-4-yl-3H-imidazo[4,5-b]pyridine]",2.470,,
"c1ccc2cc(-c3cnc4c(c3)nc(-c3ccc5c(c3)OCCO5)n4C3CCNCC3)ccc2c1 [2-(2,3-dihydro-1,4-benzodioxin-6-yl)-6-(2-naphthyl)-3-piperidin-4-yl-3H-imidazo[4,5-b]pyridine]",1.460,,
"c1ccc2cc(-c3cnc4c(c3)nc(-c3ccncc3)n4C3CCNCC3)ccc2c1 [6-(2-naphthyl)-3-piperidin-4-yl-2-pyridin-4-yl-3H-imidazo[4,5-b]pyridine]",,1.56,0.005
"c1ccc2cc(-c3cnc4c(c3)ncn4C3CCNCC3)ccc2c1 [6-(2-naphthyl)-3-piperidin-4-yl-3H-imidazo[4,5-b]pyridine]",,1.53,
"[O-][n+]1ccc(-c2nc3c(-c4ccc5ccccc5c4)ccnc3n2C2CCNCC2)cc1 [7-(2-naphthyl)-2-(1-oxidopyridin-4-yl)-3-piperidin-4-yl-3H-imidazo[4,5-b]pyridine]",,1.45,0.06
"O=[N+]([O-])c1ccccc1-c1nc2c(-c3ccc4ccccc4c3)ccnc2n1C1CCNCC1 [7-(2-naphthyl)-2-(2-nitrophenyl)-3-piperidin-4-yl-3H-imidazo[4,5-b]pyridine]",,1.14,
"O=[N+]([O-])c1cccc(-c2nc3c(-c4ccc5ccccc5c4)ccnc3n2C2CCNCC2)c1 [7-(2-naphthyl)-2-(3-nitrophenyl)-3-piperidin-4-yl-3H-imidazo[4,5-b]pyridine]",,1.29,
"c1ccc(Oc2cccc(-c3nc4c(-c5ccc6ccccc6c5)ccnc4n3C3CCNCC3)c2)cc1 [7-(2-naphthyl)-2-(3-phenoxyphenyl)-3-piperidin-4-yl-3H-imidazo[4,5-b]pyridine]",,1.4,
"O=[N+]([O-])c1ccc(-c2nc3c(-c4ccc5ccccc5c4)ccnc3n2C2CCNCC2)cc1 [7-(2-naphthyl)-2-(4-nitrophenyl)-3-piperidin-4-yl-3H-imidazo[4,5-b]pyridine]",,1.42,
"O=[N+]([O-])c1ccc(-c2nc3c(-c4ccc5ccccc5c4)ccnc3n2C2CCNCC2)s1 [7-(2-naphthyl)-2-(5-nitro-2-thienyl)-3-piperidin-4-yl-3H-imidazo[4,5-b]pyridine]",,1.83,0.01
"c1ccc(-c2nc3c(-c4ccc5ccccc5c4)ccnc3n2C2CCNCC2)cc1 [7-(2-naphthyl)-2-phenyl-3-piperidin-4-yl-3H-imidazo[4,5-b]pyridine]",,1.23,0.05
"O=C(N1CCC(n2cnc3c(-c4ccc5ccccc5c4)ccnc32)CC1)C(F)(F)F [7-(2-naphthyl)-3-[1-(trifluoroacetyl)piperidin-4-yl]-3H-imidazo[4,5-b]pyridine]",,1.58,0.39
"O=c1[nH]c2c(-c3ccc4ccccc4c3)ccnc2n1C1CCNCC1 [7-(2-naphthyl)-3-piperidin-4-yl-1,3-dihydro-2H-imidazo[4,5-b]pyridin-2-one]",,1.29,0.04
"c1c[nH]c(-c2nc3c(-c4ccc5ccccc5c4)ccnc3n2C2CCNCC2)c1 [7-(2-naphthyl)-3-piperidin-4-yl-2-(1H-pyrrol-2-yl)-3H-imidazo[4,5-b]pyridine]",,1.25,
"c1csc(-c2nc3c(-c4ccc5ccccc5c4)ccnc3n2C2CCNCC2)c1 [7-(2-naphthyl)-3-piperidin-4-yl-2-(2-thienyl)-3H-imidazo[4,5-b]pyridine]",,1.22,0.04
"c1ccc2cc(-c3ccnc4c3nc(-c3ccsc3)n4C3CCNCC3)ccc2c1 [7-(2-naphthyl)-3-piperidin-4-yl-2-(3-thienyl)-3H-imidazo[4,5-b]pyridine]",,1.17,0.01
"C=Cc1cccc(-c2nc3c(-c4ccc5ccccc5c4)ccnc3n2C2CCNCC2)c1 [7-(2-naphthyl)-3-piperidin-4-yl-2-(3-vinylphenyl)-3H-imidazo[4,5-b]pyridine]",,1.44,
"FC(F)(F)Oc1ccccc1-c1nc2c(-c3ccc4ccccc4c3)ccnc2n1C1CCNCC1 [7-(2-naphthyl)-3-piperidin-4-yl-2-[2-(trifluoromethoxy)phenyl]-3H-imidazo[4,5-b]pyridine]",,1.88,

Compound,A = MAX FOLD Induction/DMSO CONTROL [1],fold induction at 2 µM [2],fold induction at 20 µM [2]
"FC(F)(F)c1ccccc1-c1nc2c(-c3ccc4ccccc4c3)ccnc2n1C1CCNCC1 [7-(2-naphthyl)-3-piperidin-4-yl-2-[2-(trifluoromethyl)phenyl]-3H-imidazo[4,5-b]pyridine]",,1.72,
"FC(F)(F)Oc1cccc(-c2nc3c(-c4ccc5ccccc5c4)ccnc3n2C2CCNCC2)c1 [7-(2-naphthyl)-3-piperidin-4-yl-2-[3-(trifluoromethoxy)phenyl]-3H-imidazo[4,5-b]pyridine]",,1.52,
"FC(F)(F)c1cccc(-c2nc3c(-c4ccc5ccccc5c4)ccnc3n2C2CCNCC2)c1 [7-(2-naphthyl)-3-piperidin-4-yl-2-[3-(trifluoromethyl)phenyl]-3H-imidazo[4,5-b]pyridine]",,1.54,
"FC(F)(F)Oc1ccc(-c2nc3c(-c4ccc5ccccc5c4)ccnc3n2C2CCNCC2)cc1 [7-(2-naphthyl)-3-piperidin-4-yl-2-[4-(trifluoromethoxy)phenyl]-3H-imidazo[4,5-b]pyridine]",,1.51,
"FC(F)(F)c1ccc(-c2nc3c(-c4ccc5ccccc5c4)ccnc3n2C2CCNCC2)cc1 [7-(2-naphthyl)-3-piperidin-4-yl-2-[4-(trifluoromethyl)phenyl]-3H-imidazo[4,5-b]pyridine]",,1.28,
"CCCc1nc2c(-c3ccc4ccccc4c3)ccnc2n1C1CCNCC1 [7-(2-naphthyl)-3-piperidin-4-yl-2-propyl-3H-imidazo[4,5-b]pyridine]",,1.93,
"c1ccc(-c2nc3c(-c4ccc5ccccc5c4)ccnc3n2C2CCNCC2)nc1 [7-(2-naphthyl)-3-piperidin-4-yl-2-pyridin-2-yl-3H-imidazo[4,5-b]pyridine]",,1.12,0.02
"c1cncc(-c2nc3c(-c4ccc5ccccc5c4)ccnc3n2C2CCNCC2)c1 [7-(2-naphthyl)-3-piperidin-4-yl-2-pyridin-3-yl-3H-imidazo[4,5-b]pyridine]",,1.21,
"FC(F)(F)c1cccc(Oc2cccc(-c3nc4c(-c5ccc6ccccc6c5)ccnc4n3C3CCNCC3)c2)c1 [7-(2-naphthyl)-3-piperidin-4-yl-2-{3-[3-(trifluoromethyl)phenoxy]phenyl}-3H-imidazo[4,5-b]pyridine]",,1.29,
"c1ccc2cc(-c3cnc4c(c3)nc(-c3cccc5cccnc35)n4C3CCNCC3)ccc2c1 [8-[6-(2-naphthyl)-3-piperidin-4-yl-3H-imidazo[4,5-b]pyridin-2-yl]quinoline]",,1.61,
"c1ccc2cc(-c3ccnc4c3nc(-c3cccc5cccnc35)n4C3CCNCC3)ccc2c1 [8-[7-(2-naphthyl)-3-piperidin-4-yl-3H-imidazo[4,5-b]pyridin-2-yl]quinoline]",,,1.01
"CN(C)C(=O)N1CCC(n2c(=O)n(C)c3c(-c4ccc5ccccc5c4)ccnc32)CC1 [N,N-dimethyl-4-[1-methyl-7-(2-naphthyl)-2-oxo-1,2-dihydro-3H-imidazo[4,5-b]pyridin-3-yl]piperidine-1-carboxamide]",,1.19,0.35
"CN(C)S(=O)(=O)N1CCC(n2cnc3c(-c4ccc5ccccc5c4)ccnc32)CC1 [N,N-dimethyl-4-[7-(2-naphthyl)-3H-imidazo[4,5-b]pyridin-3-yl]piperidine-1-sulfonamide]",,1.19,1.46
"O=C(NC1CCCCC1)N1CCC(n2cnc3c(-c4ccc5ccccc5c4)ccnc32)CC1 [N-cyclohexyl-4-[7-(2-naphthyl)-3H-imidazo[4,5-b]pyridin-3-yl]piperidine-1-carboxamide]",,0.97,0.03
"CCNC(=O)N1CCC(n2cnc3c(-c4ccc5ccccc5c4)ccnc32)CC1 [N-ethyl-4-[7-(2-naphthyl)-3H-imidazo[4,5-b]pyridin-3-yl]piperidine-1-carboxamide]",,1.52,1.29
"CC(C)NC(=O)N1CCC(n2c(=O)n(C)c3c(-c4ccc5ccccc5c4)ccnc32)CC1 [N-isopropyl-4-[1-methyl-7-(2-naphthyl)-2-oxo-1,2-dihydro-3H-imidazo[4,5-b]pyridin-3-yl]piperidine-1-carboxamide]",,1.07,0.26
"CC(C)NC(=O)N1CCC(n2c(=O)[nH]c3c(-c4ccc5ccccc5c4)ccnc32)CC1 [N-isopropyl-4-[7-(2-naphthyl)-2-oxo-1,2-dihydro-3H-imidazo[4,5-b]pyridin-3-yl]piperidine-1-carboxamide]",,1.42,1.1
"CC(C)NC(=O)N1CCC(n2cnc3c(-c4ccc5ccccc5c4)ccnc32)CC1 [N-isopropyl-4-[7-(2-naphthyl)-3H-imidazo[4,5-b]pyridin-3-yl]piperidine-1-carboxamide]",,1.2,0.84
"COC(=O)N1CCC(n2cnc3c(-c4ccc5ccccc5c4)ccnc32)CC1 [methyl 4-[7-(2-naphthyl)-3H-imidazo[4,5-b]pyridin-3-yl]piperidine-1-carboxylate]",,1.08,1.02
